Data taken from patent publication US20230158071A1, “TUMOR COMBINED IMMUNOTHERAPY” (CRAGE medical Co., Limited, priority 2018, published 2023).

Experiments:
E0771ERVIII cells = assay: In vitro proliferation of E0771ERVIII cells (veliparib, JQ1); type: cell-based, mouse
Description: (§1) Another small molecule drug JQ1 is a BET bromodomain inhibitor acting on BRD4, it may induce tumor cell apoptosis (i.e., slow proliferation) by targeted inhibition of BRD4, thereby achieving anti-tumor effects.

mouse CAR-T cells = assay: In vitro proliferation of mouse CAR-T cells (veliparib, JQ1); type: cell-based
Description: as §1

CART cells = assay: LDH cell killing experiment with veliparib; type: cell-based; conditions: 100 μM
Description: as §1

mouse T cells = assay: In vitro proliferation of mouse T cells (JQ1); type: cell-based; conditions: JQ1, dose-dependent manner
Description: as §1

| Structure (SMILES) | concentration level that may affect the proliferation level of E0771ERVIII cells (E0771ERVIII cells; in vitro) [µM] | concentration that may significantly inhibit the proliferation of E0771ERVIII cells (E0771ERVIII cells; in vitro) [µM] | proliferation of mouse CAR-T cells (mouse CAR-T cells; veliparib at 20 μM or more) | killing effect of CART cells (CART cells) | proliferation of E0771ERVIII cells (E0771ERVIII cells; different concentrations of JQ1 for 48 h) | proliferation of CAR-T cells (mouse CAR-T cells; JQ1, dose-dependent manner) | proliferation of mouse T cells (mouse T cells) |
| --- | --- | --- | --- | --- | --- | --- | --- |
| C[C@]1(c2nc3c(C(N)=O)cccc3[nH]2)CCCN1 [veliparib] | ≥ 10 | ≥ 20 | significantly inhibit | could not improve | – | – | – |
| Cc1sc2c(c1C)C(c1ccc(Cl)cc1)=N[C@@H](CC(=O)OC(C)(C)C)c1nnc(C)n1-2 [JQ1] | – | – | – | – | could not inhibit | significantly inhibit | significantly inhibit |
